In patent US10953012B2, “Heterocyclic compounds for the inhibition of pask” (BioEnergenix LLC, priority 2011, dated 2021):
pIC50: −log10 of the molar value.

Molecular target: PASK (Homo sapiens (Human), UniProt Q96RG2)
Test: PAS Kinase FRET Assay
Format: biochemical
Details: TR-FRET assay; read-out: IC50 Kinase Domain
Text: The aim of the FRET assay is to determine the inhibition potential of test compounds on targeted kinase. This assay platform provides a homogenous screening method for measuring kinase activity by quantitating the amount of phospho-substrate in solution following a kinase reaction.
In the presence of kinase and ATP, the Ulight-peptide is phosphorylated and captured by an anti-phospho-substrate antibody, which brings the Eu chelate donor and Ulight acceptor dyes into close proximity. Upon excitation at 340 nm, the Eu chelate transfers its energy to the Ulight dye, resulting in a fluorescent light emission at 665 nm
Titration of kinase at 1 mM ATP was achieved via the following protocol. After making serial three-fold dilutions of PASK (Invitrogen) in reaction buffer across the plate; 5 μl of kinase dilution and 5 μl substrate/ATP mix were added to the wells of the white Optiplate-384 (PerkinElmer). The contents of the plate were and incubated at RT for 1 h. The reaction was stopped by adding 5 μl of stop solution to each test well followed by mixing and incubation at RT for 10 minutes. 5 μl of detection mix (detection antibody diluted in detection buffer) was added; the contents of the plate were mixed and then incubated in the dark for 1 hour at RT. The signal was recorded at TR-FRET mode (665 nm/615 nm). The results were graphed to calculate the EC50.
Titration of ATP at the EC50 concentration of kinase to determine ATP Km, app. was performed using the following method. After making serial dilutions of ATP (Invitrogen), 5 μl of ATP dilution and 5 μl substrate/kinase mix were added to the wells of the white Optiplate-384 (PerkinElmer). The contents of the plate were and incubated at RT for 1 h. The reaction was stopped by adding 5 μl of stop solution to each test well followed by mixing and incubation at RT for 10 minutes. 5 μl of detection mix (detection antibody diluted in detection buffer) was added; the contents of the plate were mixed and then incubated in the dark for 1 hour at RT. The signal was recorded at TR-FRET mode (665 nm/615 nm). The results were graphed to calculate the EC50 as the ATP Km, app.
Compound screening was done via the following method. 10 mM stock solution of test compound in DMSO was prepared by dissolving test compound in DMSO at RT for 1 hour, and then sonicating at 100% output for 8 minutes. If compound is not soluble under this condition, it was diluted to 3 mM. Kinase reaction buffer was prepared containing 10 mM MgCl2, 50 mM HEPES, 1 mM EGTA, 0.01% TWEEN-20, 2 mM DTT. Serial dilutions of the test compounds were prepared at 4×final assay concentrations using Freedom EVO200® dispensing system as follows: 12×10^−5 M, 4×10^−5 M, 1.33×10^−5 M, 4.44×10^−6 M, 1.48×10^−6 M, 4.92×10^−7 M, 1.65×10^−7 M, […], 1.82×10^−8M, 6.09×10^−9, 2.03×10^−9 M. Test compounds (2.5 μl at 4× the final assay concentration) was added to wells using Freedom EVO200® dispensing system. As a positive control, 2.5 μl of positive compound was added to assay wells, and 2.5 μl of DMSO to assay wells as vehicle control. Kinase solution was prepared in reaction buffer at 2×final assay concentration. Kinase solution (5 μl) was added to each well of the assay plate. The substrate and ATP solution was prepared in kinase reaction buffer at 4×final assay concentration. The kinase reaction was started by adding 2.5 μl of substrate+ATP mix solution to each well of the assay plate. The plate is mixed on a plate shaker; then covered and allowed to react for 2 hours in the dark at 25° C. without shaking. The reaction was stopped by adding 5 μl of stop solution to each test well followed by mixing and incubation at RT for 10 minutes in the dark. 5 μl of detection mix (detection antibody diluted in detection buffer) was added; the contents of the plate were mixed and then incubated in the dark for 1 hour at RT. The signal was recorded at TR-FRET mode (665 nm/615 nm).

Chain of PASK (Q96RG2 999-1251): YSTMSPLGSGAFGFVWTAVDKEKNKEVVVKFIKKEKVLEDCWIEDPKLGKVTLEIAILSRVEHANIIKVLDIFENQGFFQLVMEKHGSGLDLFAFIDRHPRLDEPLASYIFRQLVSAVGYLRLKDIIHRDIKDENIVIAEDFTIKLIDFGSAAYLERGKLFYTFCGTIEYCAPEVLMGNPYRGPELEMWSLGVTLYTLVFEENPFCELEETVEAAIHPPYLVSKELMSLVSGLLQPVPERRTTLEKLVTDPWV

| SMILES | pIC50 |
| --- | --- |
| Cc1nn2c(=O)cc(-c3ccc(O)cc3)[nH]c2c1-c1ccccc1 [Example 80, 5-(4-Hydroxyphenyl)-2-methyl-3-phenylpyrazolo[1,5-a]pyrimidin-7(4H)-one] | ≥ 5.00 |
| COc1ccc(-c2c(C)nn3c(=O)cc(-c4ccc5ncccc5c4)[nH]c23)cc1 [Example 84, 3-(4-Methoxyphenyl)-2-methyl-5-(quinolin-6-yl)pyrazolo[1,5-a]pyrimidin-7(4H)-one] | ≥ 5.00 |
| Cc1nn2c(=O)cc(-c3ccc4[nH]ccc4c3)[nH]c2c1-c1ccccc1 [Example 87, 5-(1H-Indol-5-yl)-2-methyl-3-phenylpyrazolo[1,5-a]pyrimidin-7(4H)-one] | ≥ 5.00 |
| O=c1cc(-c2ccccc2)[nH]c2c(-c3ccc(N4CCCCC4)nc3)cnn12 [Example 88, 5-Phenyl-3-(6-(piperidin-1-yl)pyridin-3-yl)pyrazolo[1,5-a]pyrimidin-7(4H)-one] | ≤ 5.00 |
| O=c1cc(-c2ccc(Cl)cc2Cl)[nH]c2c(-c3ccccn3)cnn12 [Example 124, 5-(2,4-Dichlorophenyl)-3-(pyridin-2-yl)pyrazolo[1,5-a]pyrimidin-7(4H)-one] | ≥ 5.00 |
| O=c1cc(-c2ccc(Cl)cc2)[nH]c2c(Cc3ccccc3)cnn12 [Example 132, 3-benzyl-5-(4-chlorophenyl)pyrazolo[1,5-a]pyrimidin-7(411)-one] | ≥ 5.00 |
| COc1cc(Cl)ccc1-c1cc(=O)n2ncc(-c3ccccn3)c2[nH]1 [Example 136, 5-(4-Chloro-2-methoxyphenyl)-3-(pyridin-2-yl)pyrazolo[1,5-a]pyrimidin-7(4H)-one] | ≥ 5.00 |
| COc1nn2c(=O)cc(-c3ccc(Cl)cc3)[nH]c2c1C#N [Example 138, 5-(4-Chlorophenyl)-2-methoxy-7-oxo-4,7-dihydropyrazolo[1,5-a]pyrimidine-3-carbonitrile] | ≥ 5.00 |
| N#Cc1c(O)nn2c(=O)cc(-c3ccc(Cl)cc3)[nH]c12 [Example 139, 5-(4-Chlorophenyl)-2-hydroxy-7-oxo-4,7-dihydropyrazolo[1,5-a]pyrimidine-3-carbonitrile] | ≥ 5.00 |
| Nc1nn2c(=O)cc(-c3cc4ccccc4o3)[nH]c2c1-c1ccccn1 [Example 151, 2-Amino-5-(benzofuran-2-yl)-3-(pyridin-2-yl)pyrazolo[1,5-a]pyrimidin-7(4H)-one] | ≥ 5.00 |
| Nc1nn2c(=O)cc(-c3ccc(Cl)c(Cl)c3)[nH]c2c1-c1ccccn1 [Example 153, 2-Amino-5-(3,4-dichlorophenyl)-3-(pyridin-2-yl)pyrazolo[1,5-a]pyrimidin-7(4H)-one] | ≥ 5.00 |
| O=c1cc(-c2ccccc2)[nH]c2c(-c3cccnc3)c(O)nn12 [Example 154, 2-Hydroxy-5-phenyl-3-(pyridin-3-yl)pyrazolo[1,5-a]pyrimidin-7(4H)-one] | ≥ 5.00 |
| O=c1cc(-c2ccc(Cl)cc2F)[nH]c2c(-c3ccccn3)cnn12 [Example 162, 5-(4-Chloro-2-fluorophenyl)-3-(pyridin-2-yl)pyrazolo[1,5-a]pyrimidin-7(4H)-one] | ≥ 5.00 |
| Nc1nn2c(=O)cc(-c3ccc4occc4c3)[nH]c2c1-c1ccccn1 [Example 165, 2-Amino-5-(benzofuran-5-yl)-3-(pyridin-2-yl)pyrazolo[1,5-a]pyrimidin-7(4H)-one] | ≥ 5.00 |
| Cc1coc2ccc(-c3cc(=O)n4nc(N)c(-c5ccccn5)c4[nH]3)cc12 [Example 166, 2-Amino-5-(3-methylbenzofuran-5-yl)-3-(pyridin-2-yl)pyrazolo[1,5-a]pyrimidin-7(4H)-one] | ≥ 5.00 |
| Cc1coc2ccc(-c3cc(=O)n4nc(O)c(-c5ccccn5)c4[nH]3)cc12 [Example 168, 2-Hydroxy-5-(3-methylbenzofuran-5-yl)-3-(pyridin-2-yl)pyrazolo[1,5-a]pyrimidin-7(4H)-one] | ≥ 5.00 |

Further lines, results first:

| pIC50 | SMILES |
| --- | --- |
| ≥ 5.00 | COc1ccc(-c2cnn3c(=O)cc(-c4ccc5c(c4)OCCO5)[nH]c23)cc1 [Example 82, 5-(2,3-Dihydrobenzo[b][1,4]dioxin-6-yl)-3-(4-methoxyphenyl)pyrazolo[1,5-a]pyrimidin-7(4H)-one] |
| ≥ 5.00 | Cc1nn2c(=O)cc(-c3ccc4ncccc4c3)[nH]c2c1-c1ccc(F)cc1 [Example 83, 3-(4-Fluorophenyl)-2-methyl-5-(quinolin-6-yl)pyrazolo[1,5-a]pyrimidin-7(4H)-one] |
| ≥ 5.00 | COc1ccc(-c2c(C)nn3c(=O)cc(-c4ccc5c(c4)OCCO5)[nH]c23)cc1 [Example 85, 5-(2,3-Dihydrobenzo[b][1,4]dioxin-6-yl)-3-(4-methoxyphenyl)-2-methylpyrazolo[1,5-a]pyrimidin-7(4H)-one] |
| ≥ 5.00 | O=c1cc(-c2ccc3c(c2)OCCO3)[nH]c2c(-c3ccc(F)cc3)cnn12 [Example 86, 5-(2,3-Dihydrobenzo[b][1,4]dioxin-6-yl)-3-(4-fluorophenyl)pyrazolo[1,5-a]pyrimidin-7(4H)-one] |
| ≥ 5.00 | O=c1cc(-c2ccc3c(c2)OCCO3)[nH]c2c(-c3cccc(Cl)c3)cnn12 [Example 90, 3-(3-Chlorophenyl)-5-(2,3-dihydrobenzo[b][1,4]dioxin-6-yl)pyrazolo[1,5-a]pyrimidin-7(4H)-one] |
| ≥ 5.00 | O=c1cc(-c2ccc3c(c2)OCCO3)[nH]c2c(-c3ccc(Br)cc3)cnn12 [Example 104, 3-(4-Bromophenyl)-5-(2,3-dihydrobenzo[b][1,4]dioxin-6-yl)pyrazolo[1,5-a]pyrimidin-7(4H)-one] |
| ≥ 5.00 | O=c1cc(-c2ccccc2)[nH]c2c(-c3ccc(O)nc3)cnn12 [Example 105, 3-(6-Hydroxypyridin-3-yl)-5-phenylpyrazolo[1,5-a]pyrimidin-7(4H)-one] |
| ≥ 5.00 | COc1ccc(-c2cnn3c(=O)cc(-c4ccccc4)[nH]c23)cn1 [Example 112, 3-(6-Methoxypyridin-3-yl)-5-phenylpyrazolo[1,5-a]pyrimidin-7(4H)-one] |
| ≥ 5.00 | O=C(O)c1cnn2c(=O)cc(-c3ccc4c(c3)OCCO4)[nH]c12 [Example 115, 5-(2,3-Dihydrobenzo[b][1,4]dioxin-6-yl)-7-oxo-4,7-dihydropyrazolo[1,5-a]pyrimidine-3-carboxylic acid] |
| ≥ 5.00 | O=c1cc(-c2ccc3c(c2)OCCO3)[nH]c2c(-c3ccc(N4CCOCC4)nc3)cnn12 [Example 118, 5-(2,3-Dihydrobenzo[b][1,4]dioxin-6-yl)-3-(6-morpholinopyridin-3-yl)pyrazolo[1,5-a]pyrimidin-7(4H)-one] |
| ≥ 5.00 | CCCc1cnn2c(=O)cc(-c3ccc4c(c3)OCO4)[nH]c12 [Example 134, 5-(Benzo[d][1,3]dioxol-5-yl)-3-propylpyrazolo[1,5-a]pyrimidin-7(4H)-one] |
| ≥ 5.00 | CS(=O)(=O)c1ccc(-c2cc(=O)n3ncc(-c4ccccn4)c3[nH]2)cc1 [Example 140, 5-(4-(Methylsulfonyl)phenyl)-3-(pyridin-2-yl)pyrazolo[1,5-a]pyrimidin-7(4H)-one] |
| ≥ 5.00 | O=C(c1cnn2c(=O)cc(-c3ccc4c(c3)OCCO4)[nH]c12)N1CCCC1 [Example 146, 5-(2,3-Dihydrobenzo[b][1,4]dioxin-6-yl)-3-(pyrrolidine-1-carbonyl)pyrazolo[1,5-a]pyrimidin-7(4H)-one] |
| ≥ 5.00 | COc1nn2c(=O)cc(-c3ccc4c(c3)OCO4)[nH]c2c1-c1ccccn1 [Example 157, 5-(Benzo[d][1,3]dioxol-5-yl)-2-methoxy-3-(pyridin-2-yl)pyrazolo[1,5-a]pyrimidin-7(4H)-one] |
| ≥ 5.00 | Cc1coc2ccc(-c3cc(=O)n4ncc(-c5ccccn5)c4[nH]3)cc12 [Example 167, 5-(3-Methylbenzofuran-5-yl)-3-(pyridin-2-yl)pyrazolo[1,5-a]pyrimidin-7(4H)-one] |
